Source: patent US20250229272A1, “Headspace Eliminating Microtiter Plate Lid” (Agilent Technologies, Inc., priority 2022, published 2025)

System: mitochondrial network
Assay: MitoTracker imaging of the mitochondrial network in cells incubated with compounds (Cytation 5)
Assay type: cell-based
Conditions: cells loaded with MitoTracker and hoechst; imaged while incubating with compounds; compared to the control; FIG. 15
Method: Cells were loaded with MitoTracker and hoechst as per manufactures instructions. Cells were washed with media then the media was replaced with media containing MitoXpress Xtra. Imaging was carried out as the plate was incubating with compounds using a Cytation 5 with a RFP LED/Filter set. Then, the lid of the present disclosure was placed onto the base of the plate assembly and MitoXpress Assay was run as normal.
The effects in structure are then reflected in the rates of oxygen consumption showing a direct correlation between structure and function. Different compounds lead to different effects. Some promote fusion, some inhibit fusion, some fission some limit fission. The novel insight with this method is to correlate changes in structure of the mitochondria to functional changes in respiration as shown in FIG. 16 in the same well for the first time.

| Molecule | effects of compounds on the mitochondrial network |
| --- | --- |
| Antimycin | cause the network to condense, and divide |
| CC[C@H]1/C=C/C=C/C[C@@H](C)[C@H](O)[C@@](C)(O)C(=O)[C@@H](C)[C@H](O)[C@@H](C)C(=O)[C@@H](C)[C@H](O)[C@@H](C)/C=C/C(=O)O[C@@H]2[C@H](C)[C@H](CC1)O[C@]1(CC[C@H](C)[C@H](C[C@@H](C)O)O1)[C@H]2C [Oligomycin] | cause the network to condense, and divide |
| C=C(C)[C@H]1Cc2c(ccc3c2O[C@@H]2COc4cc(OC)c(OC)cc4[C@@H]2C3=O)O1 [Rotenone] | cause the network to condense, and divide |
